Reference: patent US10954237B2, “JAK inhibitors containing a 4-membered heterocyclic amide” (THERAVANCE BIOPHARMA R&D IP, LLC, priority 2017, dated 2021)

Legend:
[1] = test system: IL-5 mediated survival of human eosinophils; experiment: IL-5 mediated eosinophil survival assay; type: cell-based
Method: The potency of the test compound for IL-5 mediated eosinophil survival was measured in human eosinophils isolated from human whole blood (AllCells). Because IL-5 signals through JAK, this assay provides a measure of JAK cellular potency.
Human eosinophils were isolated from fresh human whole blood (AllCells) of healthy donors. Blood was mixed with 4.5% Dextran (Sigma-Aldrich) in a 0.9% sodium chloride solution (Sigma-Aldrich). Red blood cells were left to sediment for 35 minutes. The leukocyte rich upper layer was removed and layered over Ficoll-Paque (GE Healthcare) and centrifuged at 600 g for 30 minutes. The plasma and mononuclear cell layers were removed before the granulocyte layer was lysed with water to remove any contaminating red blood cells. […] Purity was analyzed using a LSRII flow cytometer (BD Biosciences). […]
After cytokine stimulation, cells were centrifuged at 300 g for 5 min and washed twice with cold DPBS (Life Technologies). To access viability and apoptosis, cells were incubated with Propidium Iodide (Thermo Fisher Scientific) and APC Annexin V (BD Biosciences) and analyzed using a LSRII flow cytometer (BD Biosciences). IC50 values were determined from analysis of the viability curves of percent cell viability vs compound concentration. Data are expressed as pIC50 (negative decadic logarithm IC50) values.

[2] = test system: IL-6 stimulated STAT3 phosphorylation in CD3+ T cells; experiment: Inhibition of IL-6 stimulated pSTAT3 in CD3+ T cells; type: cell-based, human
Source text: A protocol analogous to that of Assay 10 was used to determine the potency of the test compound for inhibition of interleuken-6 (IL-6) stimulated STAT3 phosphorylation. An Alexa Fluor 647 conjugated anti-pSTAT3 antibody (pY705, Clone 4/P, BD Biosciences) was used to detect STAT3 phosphorylation.

[3] = test system: IL-2/anti-CD3 stimulated IFNγ in human PBMCs; experiment: Inhibition of IL-2/anti-CD3 stimulated IFNγ in human PBMCs; type: cell-based
Method: The potency of the test compound for inhibition of interleukin-2 (IL-2)/anti-CD3 stimulated interferon gamma (IFNγ) was measured in human peripheral blood mononuclear cells (PBMCs) isolated from human whole blood (Stanford Blood Center). Because IL-2 signals through JAK, this assay provides a measure of JAK cellular potency.
(1) Human peripheral blood mononuclear cells (PBMC) were isolated from human whole blood of healthy donors using a ficoll gradient. Cells were cultured in a 37° C., 5% CO2 humidified incubator in RPMI (Life Technologies) supplemented with 10% Heat Inactivated Fetal Bovine Serum (FBS, Life Technologies), 2 mM Glutamax (Life Technologies), 25 mM HEPES (Life Technologies) and 1× Pen/Strep (Life Technologies). Cells were seeded at 200,000 cells/well in media (50 μL) and cultured for 1 h. Compounds were serially diluted in DMSO and then diluted another 500-fold (to a 2× final assay concentration) in media. […]
(2) After cytokine stimulation, cells were centrifuged at 500 g for 5 min and supernatants removed and frozen at −80° C. To determine the inhibitory potency of the test compound in response to IL-2/anti-CD3, supernatant IFNγ concentrations were measured via ELISA (R&D Systems). IC50 values were determined from analysis of the inhibition curves of concentration of IFNγ vs compound concentration. Data are expressed as pIC50 (negative decadic logarithm IC50) values.

[4] = test system: IFNγ induced CXCL10 secretion; experiment: IFNγ induced CXCL10 in human 3D airway cultures; type: cell-based
Method: EpiAirway tissue cultures were obtained from Mattek (AIR-100). Cultures were derived from asthmatic donors. In a cell culture insert, human derived tracheal/bronchial epithelial cells were grown and differentiated on a porous membrane support, allowing an air-liquid interface with warmed culture medium below the cells and a gaseous test atmosphere above. Tissues were cultured in maintenance media (Mattek, AIR-100-MM) in a 37° C., 5% CO2 humidified incubator. Four donors were tested. On Day 0, tissue cultures were treated with test compounds at 10 μM, 1 μM and/or 0.1 μM. Compounds were diluted in dimethyl sulfoxide (DMSO, Sigma) to a final concentration of 0.1%. DMSO at 0.1% was used as a vehicle control. Test compounds were incubated with cultures for 1 hour at 37° C., 5% CO2, followed by the addition of pre-warmed media containing IFNγ (R&D Systems) or IL-27 (R&D Systems) at a final concentration at 100 ng/ml. Tissue cultures were maintained for 8 days. Media was replaced every 2 days with fresh media containing compounds and IFNγ or IL-27. On Day 8, tissue cultures and supernatants were collected for analysis. […] Data is expressed as % Inhibition+/−standard deviation (±STDV). Percent inhibition was determined by compound inhibitory potency against IFNγ or IL-27 induced CXCL10 or CXCL9 secretion compared to vehicle treated cells. […]

[5] = Pharmacokinetics in plasma and lung in mouse; type: in vivo; settings: oral aspiration, lung AUC / plasma AUC

Row | Lung to Plasma ratio Assay 3 [5] | Structure (SMILES) | IL-5 mediated human eosinophil survival (in words) [1] | IL-6 signaling (in words) [2] | anti-CD3 and IL-2 induced release of IFNγ from activated human peripheral blood-isolated T cells (in words) [3] | inhibition at 10 µM [4] [%]
1 | – | CCc1cc(O)c(F)cc1-c1ccc2c(-c3nc4c([nH]3)CN(C(C)C)[C@H](C(=O)N3CC(N(C)C)C3)C4)n[nH]c2c1 [Example 2, (S)-(3-(dimethylamino)azetidin-1-yl)(2-(6-(2-ethyl-5-fluoro-4-hydroxyphenyl)-1H-indazol-3-yl)-5-isopropyl-4,5,6,7-tetrahydro-3H-imidazo[4,5-c]pyridin-6-yl)methanone] | potently inhibit | inhibit | inhibit | 101
2 | C (C denotes a ratio between 20 and 50) | CCCN1Cc2[nH]c(-c3n[nH]c4cc(-c5cc(F)c(O)cc5CC)ccc34)nc2C[C@H]1C(=O)N1CC(N(C)C)C1 [Example 4, (S)-(3-(dimethylamino)azetidin-1-yl)(2-(6-(2-ethyl-5-fluoro-4-hydroxyphenyl)-1H-indazol-3-yl)-5-propyl-4,5,6,7-tetrahydro-3H-imidazo[4,5-c]pyridin-6-yl)methanone] | – | – | – | –
